Assay results published in ChEMBL document CHEMBL1671673, “In vitro activity of colistin (polymyxin E) against 3,480 isolates of gram-negative bacilli obtained from patients in Canadian hospitals in the CANWARD study, 2007-2008” (Antimicrob Agents Chemother, 2009).

Legend:
Format in all cases: functional, organism-based
Set-up in all cases: scale not given: the % may be the effect or the level left
Klebsiella aerogenes [1] = test: Antibacterial activity against Enterobacter aerogenes assessed as susceptible isolates at minimum inhibitory concentration of 4 ug/ml by CLSI broth microdilution method
Pseudomonas aeruginosa [2] = test: Antibacterial activity against Levofloxacin-resistant Pseudomonas aeruginosa assessed as susceptible isolates at minimum inhibitory concentration of 16 ug/ml by CLSI broth microdilution method
Pseudomonas aeruginosa [3] = test: Antibacterial activity against Pseudomonas aeruginosa assessed as susceptible isolates at minimum inhibitory concentration of <=0.06 ug/ml by CLSI broth microdilution method
Pseudomonas aeruginosa [4] = test: Antibacterial activity against Pseudomonas aeruginosa assessed as susceptible isolates at minimum inhibitory concentration of 0.12 ug/ml by CLSI broth microdilution method
Escherichia coli [5] = test: Antibacterial activity against ESBL-producing Escherichia coli assessed as susceptible isolates at minimum inhibitory concentration of 4 ug/ml by CLSI broth microdilution method
Pseudomonas aeruginosa [6] = test: Antibacterial activity against Piperacillin-resistant Pseudomonas aeruginosa assessed as susceptible isolates at minimum inhibitory concentration of 4 ug/ml by CLSI broth microdilution method
[7] = system: Stenotrophomonas maltophilia; test: Antibacterial activity against Stenotrophomonas maltophilia assessed as susceptible isolates at minimum inhibitory concentration of 0.12 ug/ml by CLSI broth microdilution method
Klebsiella oxytoca [8] = test: Antibacterial activity against Klebsiella oxytoca assessed as susceptible isolates at minimum inhibitory concentration of 1 ug/ml by CLSI broth microdilution method
[9] = system: Stenotrophomonas maltophilia; test: Antibacterial activity against Stenotrophomonas maltophilia assessed as susceptible isolates at minimum inhibitory concentration of >16 ug/ml by CLSI broth microdilution method
Pseudomonas aeruginosa [10] = test: Antibacterial activity against Amikacin-resistant Pseudomonas aeruginosa assessed as susceptible isolates at minimum inhibitory concentration of 16 ug/ml by CLSI broth microdilution method
Enterobacter cloacae [11] = test: Antibacterial activity against Enterobacter cloacae assessed as susceptible isolates at minimum inhibitory concentration of 16 ug/ml by CLSI broth microdilution method
Pseudomonas aeruginosa [12] = test: Antibacterial activity against tazobactam-resistant Pseudomonas aeruginosa assessed as susceptible isolates at minimum inhibitory concentration of 1 ug/ml by CLSI broth microdilution method
Klebsiella aerogenes [13] = test: Antibacterial activity against Enterobacter aerogenes assessed as susceptible isolates at minimum inhibitory concentration of 2 ug/ml by CLSI broth microdilution method
Klebsiella aerogenes [14] = test: Antibacterial activity against Enterobacter aerogenes assessed as susceptible isolates at minimum inhibitory concentration of 0.25 ug/ml by CLSI broth microdilution method
Proteus mirabilis [15] = test: Antibacterial activity against Proteus mirabilis assessed as susceptible isolates at minimum inhibitory concentration of >16 ug/ml by CLSI broth microdilution method
Klebsiella aerogenes [16] = test: Antibacterial activity against Enterobacter aerogenes assessed as susceptible isolates at minimum inhibitory concentration of 0.12 ug/ml by CLSI broth microdilution method
Pseudomonas aeruginosa [17] = test: Antibacterial activity against Pseudomonas aeruginosa assessed as susceptible isolates at minimum inhibitory concentration of <=2 ug/ml by CLSI broth microdilution method
[18] = system: Stenotrophomonas maltophilia; test: Antibacterial activity against Stenotrophomonas maltophilia assessed as susceptible isolates at minimum inhibitory concentration of 0.25 ug/ml by CLSI broth microdilution method
Acinetobacter baumannii [19] = test: Antibacterial activity against Acinetobacter baumannii assessed as susceptible isolates at minimum inhibitory concentration of 2 ug/ml by CLSI broth microdilution method
Serratia marcescens = test: Antibacterial activity against Serratia marcescens assessed as susceptible isolates at minimum inhibitory concentration of 4 ug/ml by CLSI broth microdilution method
Escherichia coli [20] = test: Antibacterial activity against ESBL-producing Escherichia coli assessed as susceptible isolates at minimum inhibitory concentration of 16 ug/ml by CLSI broth microdilution method
Acinetobacter baumannii [21] = test: Antibacterial activity against Acinetobacter baumannii assessed as susceptible isolates at minimum inhibitory concentration of 16 ug/ml by CLSI broth microdilution method
Pseudomonas aeruginosa [22] = test: Antibacterial activity against Gentamicin-resistant Pseudomonas aeruginosa assessed as susceptible isolates at minimum inhibitory concentration of 0.5 ug/ml by CLSI broth microdilution method
Pseudomonas aeruginosa [23] = test: Antibacterial activity against Piperacillin-resistant Pseudomonas aeruginosa assessed as susceptible isolates at minimum inhibitory concentration of 1 ug/ml by CLSI broth microdilution method
Pseudomonas aeruginosa [24] = test: Antibacterial activity against MDR4 Pseudomonas aeruginosa assessed as susceptible isolates at minimum inhibitory concentration of 0.5 ug/ml by CLSI broth microdilution method
Pseudomonas aeruginosa [25] = test: Antibacterial activity against MDR3 Pseudomonas aeruginosa assessed as susceptible isolates at minimum inhibitory concentration of 0.5 ug/ml by CLSI broth microdilution method
Pseudomonas aeruginosa [26] = test: Antibacterial activity against MDR Pseudomonas aeruginosa assessed as susceptible isolates at minimum inhibitory concentration of 1 ug/ml by CLSI broth microdilution method
Pseudomonas aeruginosa [27] = test: Antibacterial activity against Cefepime-resistant Pseudomonas aeruginosa assessed as susceptible isolates at minimum inhibitory concentration of 1 ug/ml by CLSI broth microdilution method
Pseudomonas aeruginosa [28] = test: Antibacterial activity against MDR3 Pseudomonas aeruginosa assessed as susceptible isolates at minimum inhibitory concentration of 1 ug/ml by CLSI broth microdilution method
Pseudomonas aeruginosa [29] = test: Antibacterial activity against Gentamicin-resistant Pseudomonas aeruginosa assessed as susceptible isolates at minimum inhibitory concentration of 1 ug/ml by CLSI broth microdilution method
Pseudomonas aeruginosa [30] = test: Antibacterial activity against Gentamicin-resistant Pseudomonas aeruginosa assessed as susceptible isolates at minimum inhibitory concentration of 16 ug/ml by CLSI broth microdilution method
Pseudomonas aeruginosa [31] = test: Antibacterial activity against Levofloxacin-resistant Pseudomonas aeruginosa assessed as susceptible isolates at minimum inhibitory concentration of 1 ug/ml by CLSI broth microdilution method
Klebsiella aerogenes [32] = test: Antibacterial activity against Enterobacter aerogenes assessed as susceptible isolates at minimum inhibitory concentration of 0.5 ug/ml by CLSI broth microdilution method
Proteus mirabilis [33] = test: Antibacterial activity against Proteus mirabilis assessed as susceptible isolates at minimum inhibitory concentration of <=0.06 ug/ml by CLSI broth microdilution method
Pseudomonas aeruginosa [34] = test: Antibacterial activity against Levofloxacin-resistant Pseudomonas aeruginosa assessed as susceptible isolates at minimum inhibitory concentration of 4 ug/ml by CLSI broth microdilution method
Pseudomonas aeruginosa [35] = test: Antibacterial activity against tazobactam-resistant Pseudomonas aeruginosa assessed as susceptible isolates at minimum inhibitory concentration of 2 ug/ml by CLSI broth microdilution method
Enterobacter cloacae [36] = test: Antibacterial activity against Enterobacter cloacae assessed as susceptible isolates at minimum inhibitory concentration of 8 ug/ml by CLSI broth microdilution method
Pseudomonas aeruginosa [37] = test: Antibacterial activity against MDR4 Pseudomonas aeruginosa assessed as susceptible isolates at minimum inhibitory concentration of 2 ug/ml by CLSI broth microdilution method
Klebsiella oxytoca [38] = test: Antibacterial activity against Klebsiella oxytoca assessed as susceptible isolates at minimum inhibitory concentration of <=0.06 ug/ml by CLSI broth microdilution method
Pseudomonas aeruginosa [39] = test: Antibacterial activity against tazobactam-resistant Pseudomonas aeruginosa assessed as susceptible isolates at minimum inhibitory concentration of 0.5 ug/ml by CLSI broth microdilution method

## COLISTIN
Klebsiella aerogenes [1]
  Activity: 100%
Pseudomonas aeruginosa [2]
  Activity: 98.2%
Pseudomonas aeruginosa [3]
  Activity: 0%
Pseudomonas aeruginosa [4]
  Activity: 0%
Escherichia coli [5]
  Activity: 99.5%
Pseudomonas aeruginosa [6]
  Activity: 100%
[7]
  Activity: 0%
Klebsiella oxytoca [8]
  Activity: 91.7%
[9]
  Activity: 100%
Pseudomonas aeruginosa [10]
  Activity: 97.4%
Enterobacter cloacae [11]
  Activity: 88.2%
Pseudomonas aeruginosa [12]
  Activity: 37.5%
Klebsiella aerogenes [13]
  Activity: 97.3%
Klebsiella aerogenes [14]
  Activity: 18.9%
Proteus mirabilis [15]
  Activity: 100%
Klebsiella aerogenes [16]
  Activity: 0%
Pseudomonas aeruginosa [17]
  Activity: 91.6%
[18]
  Activity: 1.2%
Acinetobacter baumannii [19]
  Activity: 93.5%
Serratia marcescens
  Activity: 1.9%
Escherichia coli [20]
  Activity: 99.7%
Acinetobacter baumannii [21]
  Activity: 96.8%
Pseudomonas aeruginosa [22]
  Activity: 3.8%
Pseudomonas aeruginosa [23]
  Activity: 37.5%
Pseudomonas aeruginosa [24]
  Activity: 7.7%
Pseudomonas aeruginosa [25]
  Activity: 4%
Pseudomonas aeruginosa [26]
  Activity: 38.2%
Pseudomonas aeruginosa [27]
  Activity: 39.7%
Pseudomonas aeruginosa [28]
  Activity: 36%
Pseudomonas aeruginosa [29]
  Activity: 35.6%
Pseudomonas aeruginosa [30]
  Activity: 99%
Pseudomonas aeruginosa [31]
  Activity: 30.7%
Klebsiella aerogenes [32]
  Activity: 73%
Proteus mirabilis [33]
  Activity: 0%
Pseudomonas aeruginosa [34]
  Activity: 98.2%
Pseudomonas aeruginosa [35]
  Activity: 92.9%
Enterobacter cloacae [36]
  Activity: 85.5%
Pseudomonas aeruginosa [37]
  Activity: 100%
Klebsiella oxytoca [38]
  Activity: 0%
Pseudomonas aeruginosa [39]
  Activity: 1.8%
